Experimental data as given in PubChem BioAssay AID256 (DTP/NCI, 2004).
Values joined by “and” are separate entries in the source; they are usually repeats but may differ in a detail not shown here. Identical values can stand only once. Toxic doses and inconclusive results are not listed. The calls were made as follows: active = survival T/C of 150% or more; inactive = T/C below 125% in these data.

System: CD2F1 mice, L1210 leukemia ip, survival T/C
Test: NCI In Vivo Anticancer Drug Screen. Data for tumor model L1210 Leukemia (intraperitoneal) in CD2F1 (CDF1) mice
Conditions: endpoint: mean survival time, higher = longer survival
Procedure, shortened: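 Each value reflects a quotient of treated over vehicle control outcomes in mice with a transplanted tumor.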

[1] = dose: 100.0 mg/kg/injection, schedule: Q01DX001 (ip), vehicle: saline with Tween-80
[2] = dose: 200.0 mg/kg/injection, schedule: Q01DX001 (ip), vehicle: saline with Tween-80
[3] = dose: 400.0 mg/kg/injection, schedule: Q01DX001 (ip), vehicle: saline with Tween-80
[4] = dose: 100.0 mg/kg/injection, schedule: Q01DX001 (ip), vehicle: other
[5] = dose: 200.0 mg/kg/injection, schedule: Q01DX001 (ip), vehicle: other
[6] = dose: 400.0 mg/kg/injection, schedule: Q01DX001 (ip), vehicle: other
[7] = dose: 100.0 mg/kg/injection, schedule: Q04DX002 (ip), vehicle: saline with Tween-80
[8] = dose: 200.0 mg/kg/injection, schedule: Q04DX002 (ip), vehicle: saline with Tween-80
[9] = dose: 100.0 mg/kg/injection, schedule: Q04DX003 (ip), vehicle: other
[10] = dose: 200.0 mg/kg/injection, schedule: Q04DX003 (ip), vehicle: other
[11] = dose: 400.0 mg/kg/injection, schedule: Q04DX003 (ip), vehicle: other
[12] = dose: 100.0 mg/kg/injection, schedule: Q01DX009 (ip), vehicle: saline with Tween-80
[13] = dose: 100.0 mg/kg/injection, schedule: Q04DX003 (ip), vehicle: saline with Tween-80
[14] = dose: 200.0 mg/kg/injection, schedule: Q01DX009 (ip), vehicle: saline with Tween-80
[15] = dose: 200.0 mg/kg/injection, schedule: Q04DX003 (ip), vehicle: saline with Tween-80
[16] = dose: 400.0 mg/kg/injection, schedule: Q01DX009 (ip), vehicle: saline with Tween-80
[17] = dose: 400.0 mg/kg/injection, schedule: Q04DX003 (ip), vehicle: saline with Tween-80
[18] = dose: 50.0 mg/kg/injection, schedule: Q01DX009 (ip), vehicle: saline with Tween-80

Measured: T/C

CC(C)(C)C1=CC(=N/S(=O)(=O)c2ccccc2)/C(N=[N+]=[N-])=C(Cl)C/1=N\S(=O)(=O)c1ccccc1
inactive: dose: 25.0 mg/kg/injection, schedule: Q01DX001 (ip), vehicle: saline with Tween-80 101 % of control | dose: 50.0 mg/kg/injection, schedule: Q01DX001 (ip), vehicle: saline with Tween-80 93 % of control | [1] 93 % of control | [2] 95 % of control | [3] 100 % of control

CC(C)CCC(C(=O)O)C(=O)O
inactive: dose: 75.0 mg/kg/injection, schedule: Q01DX001 (ip), vehicle: saline 96 % of control | dose: 150.0 mg/kg/injection, schedule: Q01DX001 (ip), vehicle: saline 102 % of control

c1ccc(N=C2CCCCC2)cc1
inactive: [4] 115 % of control | dose: 100.0 mg/kg/injection, schedule: Q01DX001 (ip), vehicle: saline + Tween-80 + alcohol 98 % of control | [5] 93 % of control | dose: 200.0 mg/kg/injection, schedule: Q01DX001 (ip), vehicle: saline + Tween-80 + alcohol 102 % of control | [6] 120 % of control | dose: 400.0 mg/kg/injection, schedule: Q01DX001 (ip), vehicle: saline + Tween-80 + alcohol 103 % of control | dose: 600.0 mg/kg/injection, schedule: Q01DX001 (ip), vehicle: saline + Tween-80 + alcohol 105 % of control

Cc1cc(OC(=S)N(C)C)c(S(=O)(=O)F)cc1Cl
inactive: [7] 95 % of control | [8] 98 % of control | dose: 400.0 mg/kg/injection, schedule: Q04DX002 (ip), vehicle: saline with Tween-80 95 % of control

Nc1cccc2cn[nH]c12
inactive: [9] 98 % of control | [10] 96 % of control | [11] 101 % of control

O=C1c2ccccc2SCCC1C(O)c1ccccc1 (stereo unspecified)
inactive: [1] 94 % of control | [2] 94 % of control | [3] 94 % of control

CC(OC(=O)c1ccccc1)c1ccccc1 (stereo unspecified)
inactive: [12] 95 % of control | [13] 96 % of control | [14] 105 % of control | [15] 105 % of control | [16] 112 % of control | [17] 94 % of control

CC(CCl)C(C#N)(c1ccccc1)c1ccccc1 (stereo unspecified)
inactive: [18] 92 % of control | [12] 95 % of control | [13] 101 % of control | [14] 95 % of control | [15] 101 % of control

C=CCCCCC(=O)c1ccccc1
inactive: dose: 50.0 mg/kg/injection, schedule: Q04DX002 (ip), vehicle: saline with Tween-80 100 % of control | [7] 93 % of control | [8] 104 % of control

O=C(C[n+]1ccccc1)N/N=C/c1ccccc1Cl
inactive: [12] 105 % of control

[Br][Pt+2][Br].[NH-]C(c1ccccc1)C([NH-])c1ccccc1 (stereo unspecified)
inactive: dose: 12.5 mg/kg/injection, schedule: Q04DX003 (ip), vehicle: saline with Tween-80 109 % of control and 119 % of control | dose: 25.0 mg/kg/injection, schedule: Q04DX003 (ip), vehicle: saline with Tween-80 107 % of control and 109 % of control | dose: 50.0 mg/kg/injection, schedule: Q04DX003 (ip), vehicle: saline with Tween-80 109 % of control

O=C(O)C(O)C(O)C(O)C(O)CO (stereo unspecified)
inactive: [18] 109 % of control | [12] 97 % of control | [14] 106 % of control

O=C(O)c1cc(-c2ccc(Cl)cc2)nc2c(Cl)cc(Cl)cc12
inactive: dose: 100.0 mg/kg/injection, schedule: Q01DX001 (ip), vehicle: saline 101 % of control | dose: 200.0 mg/kg/injection, schedule: Q01DX001 (ip), vehicle: saline 97 % of control | dose: 400.0 mg/kg/injection, schedule: Q01DX001 (ip), vehicle: saline 100 % of control

NP(=O)(OCCCCOCc1ccccc1)N(CCCl)CCCl (stereo unspecified)
inactive: dose: 25.0 mg/kg/injection, schedule: Q01DX001 (ip), vehicle: other 98 % of control | dose: 50.0 mg/kg/injection, schedule: Q01DX001 (ip), vehicle: other 101 % of control | [4] 101 % of control | [5] 90 % of control | [6] 95 % of control

Cc1oc(N)c(C#N)c1C
inactive: [12] 101 % of control | [13] 102 % of control | [14] 104 % of control | [15] 96 % of control | [16] 106 % of control | [17] 102 % of control

NC(CS)=NCCc1nc2ccccc2[nH]1
inactive: dose: 6.25 mg/kg/injection, schedule: Q04DX002 (ip), vehicle: saline 96 % of control | dose: 12.5 mg/kg/injection, schedule: Q04DX002 (ip), vehicle: saline 93 % of control | dose: 25.0 mg/kg/injection, schedule: Q04DX002 (ip), vehicle: saline 96 % of control and 104 % of control | dose: 50.0 mg/kg/injection, schedule: Q04DX002 (ip), vehicle: saline 106 % of control

c1cc(-n2nnc3cnccc32)ccn1
inactive: dose: 25.0 mg/kg/injection, schedule: Q04DX003 (ip), vehicle: saline 102 % of control | dose: 50.0 mg/kg/injection, schedule: Q04DX003 (ip), vehicle: saline 104 % of control

Fc1cc(F)c(F)c(Oc2c(F)c(F)c(-c3c(F)c(F)c(F)c(F)c3F)c(F)c2F)c1F
inactive: [13] 100 % of control | [15] 91 % of control | [17] 91 % of control

O=[N+]1C=CC(=NN=c2ccn([O-])cc2)C=C1
inactive: [7] 100 % of control | [8] 96 % of control

O=C(Nc1ccc2c(c1)OCO2)O/N=C1\C(=O)Nc2ccccc21
inactive: [13] 100 % of control | [15] 86 % of control

CCC[CH2][Sn-]([CH2]CCC)([CH2]CCC)[O]C(=O)C(C)C
inactive: dose: 375.0 micrograms/kg/injection, schedule: Q01DX009 (ip), vehicle: saline 93 % of control | dose: 750.0 micrograms/kg/injection, schedule: Q01DX009 (ip), vehicle: saline 100 % of control | dose: 1500.0 micrograms/kg/injection, schedule: Q01DX009 (ip), vehicle: saline 96 % of control

COC(=O)CCCc1c[nH]c2ccccc12
inactive: [9] 101 % of control | [10] 115 % of control | [11] 94 % of control

COC(=O)CC(=O)NC(C)CC1CNc2ccccc21 (stereo unspecified)
inactive: [13] 103 % of control | [15] 103 % of control | [17] 97 % of control

Nc1ccc(Cl)c([N+](=O)[O-])c1
inactive: dose: 100.0 mg/kg/injection, schedule: Q04DX003 (ip), vehicle: Klucel (hydroxypropylcellulose) (HPC) 94 % of control | dose: 200.0 mg/kg/injection, schedule: Q04DX003 (ip), vehicle: Klucel (hydroxypropylcellulose) (HPC) 91 % of control | dose: 400.0 mg/kg/injection, schedule: Q04DX003 (ip), vehicle: Klucel (hydroxypropylcellulose) (HPC) 89 % of control

CC(C)(N)CO
inactive: dose: 50.0 mg/kg/injection, schedule: Q01DX009 (ip), vehicle: saline 88 % of control | dose: 100.0 mg/kg/injection, schedule: Q01DX009 (ip), vehicle: saline 100 % of control | dose: 200.0 mg/kg/injection, schedule: Q01DX009 (ip), vehicle: saline 100 % of control
